What was measured:
Settings in all cases: scale 0 to 100
ALOMY = test: greenhouse pre-emergence herbicidal activity, ALOMY; assay type: in vivo, Alopercurus myosuroides
From the text: (§1) The seeds of the test plants were sown separately for each species. For the pre-emergence treatment, the active compounds, suspended or emulsified in water, were applied 1 day after sowing by means of finely distributing nozzles. The containers were irrigated gently to promote germination and growth and subsequently covered with transparent plastic hoods until the plants had rooted. This cover caused uniform germination of the test plants unless this was adversely affected by the active compounds. Depending on the species, the plants were kept at 10-25° C. and 20-35° C., respectively. The test period extended over 2 to 4 weeks. During this time, the plants were tended and their response to the individual treatments was evaluated. Evaluation was carried out using a scale from 0 to 100. 100 means no emergence of the plants, or complete destruction of at least the above-ground parts, and 0 means no damage or normal course of growth. A good herbicidal activity is given at values of at least 70, and very good herbicidal activity is given at values of at least 85. […] 22ff., the value E, which is expected if the activity of the individual active compounds is only additive, was calculated. […] If the value found experimentally is higher than the value E calculated according to Colby, a synergistic effect is present.

GERDI = test: greenhouse pre-emergence herbicidal activity, GERDI; assay type: in vivo, Geranium dissecium
From the text: (§2) The seeds of the test plants were sown separately for each species. For the pre-emergence treatment, the active compounds, suspended or emulsified in water, were applied 1 day after sowing by means of finely distributing nozzles. The containers were irrigated gently to promote germination and growth and subsequently covered with transparent plastic hoods until the plants had rooted. This cover caused uniform germination of the test plants unless this was adversely affected by the active compounds. Depending on the species, the plants were kept at 10-25° C. and 20-35° C., respectively. The test period extended over 2 to 4 weeks. During this time, the plants were tended and their response to the individual treatments was evaluated. Evaluation was carried out using a scale from 0 to 100. 100 means no emergence of the plants, or complete destruction of at least the above-ground parts, and 0 means no damage or normal course of growth. A good herbicidal activity is given at values of at least 70, and very good herbicidal activity is given at values of at least 85. Trifludimoxazin was formulated as a 500 g/I suspension concentrate, the compound of formula (I) was formulated as a 50 g/I emulsifiable concentrate and, with addition of the amount of solvent system, introduced into the spray liquor used for applying the active compound. In the examples, the solvent used was water. In the examples below, using the method of S. R. Colby (1967) “Calculating synergistic and antagonistic responses of herbicide combinations”, Weeds 15, p. 22ff., the value E, which is expected if the activity of the individual active compounds is only additive, was calculated. E=X+Y−(X·Y/100) • where • X=percent activity using active compound A at an application rate a; • Y=percent activity using active compound B at an application rate b; • E=expected activity (in %) by A+B at application rates a+b. If the value found experimentally is higher than the value E calculated according to Colby, a synergistic effect is present.

AVEFA = test: greenhouse pre-emergence herbicidal activity, AVEFA; assay type: in vivo, Avena fatua
From the text: as §1

MATIN = test: greenhouse pre-emergence herbicidal activity, MATIN; assay type: in vivo, Matricaria inodora
From the text: as §1

LAMPU = test: greenhouse pre-emergence herbicidal activity, LAMPU; assay type: in vivo, Lamium purpureum
From the text: as §1

LOLMU = test: greenhouse pre-emergence herbicidal activity, LOLMU; assay type: in vivo, Lolium multiflorum
From the text: as §1

IPOHE = test: greenhouse post-emergence herbicidal activity, IPOHE; assay type: in vivo, Ipomoea hederacea
Protocol: (§3) The seeds of the test plants were sown separately for each species. For the post-emergence treatment, the test plants were grown to a plant height of from 3 to 15 cm, depending on the plant habit, and only then treated with the active compounds which had been suspended or emulsified in water. To this end, the test plants were either sown directly, and grown in the same containers, or they were first grown separately as seedlings and transplanted into the test containers one week prior to treatment. Depending on the species, the plants were kept at 10-25° C. and 20-35° C., respectively. The test period extended over 2 to 4 weeks. During this time, the plants were tended and their response to the individual treatments was evaluated. Evaluation was carried out using a scale from 0 to 100. 100 means no emergence of the plants, or complete destruction of at least the above-ground parts, and 0 means no damage or normal course of growth. A good herbicidal activity is given at values of at least 70, and very good herbicidal activity is given at values of at least 85. […] 22ff., the value E, which is expected if the activity of the individual active compounds is only additive, was calculated. […] If the value found experimentally is higher than the value E calculated according to Colby, a synergistic effect is present.

STEME [1] = test: greenhouse post-emergence herbicidal activity, STEME; assay type: in vivo, Stellaria media
Protocol: as §3

POLCO = test: greenhouse pre-emergence herbicidal activity, POLCO; assay type: in vivo, Polygonum convolvulus
From the text: as §2

STEME [2] = test: greenhouse pre-emergence herbicidal activity, STEME; assay type: in vivo, Stellaria media
From the text: as §2

GALAP = test: greenhouse pre-emergence herbicidal activity, GALAP; assay type: in vivo, Galium aparine
From the text: as §1

[3] = Example 1, compound (I) 15.625 g/ha a.s. alone
[4] = Example 3, compound (I) 31.25 g/ha a.s. alone
[5] = Example 2, compound (I) 62.5 g/ha a.s. alone
[6] = Example 6, compound (I) 15.63 g/ha a.s. alone
[7] = Example 7, compound (I) 15.63 g/ha a.s. alone
[8] = Example 8, compound (I) 7.81 g/ha a.s. alone
[9] = Example 1, trifludimoxazin 9 g/ha a.s. alone
[10] = Example 3, trifludimoxazin 4.5 g/ha a.s. alone
[11] = Example 2, trifludimoxazin 4.5 g/ha a.s. alone
[12] = Example 6, trifludimoxazin 0.5 g/ha a.s. alone
[13] = Example 7, trifludimoxazin 0.25 g/ha a.s. alone
[14] = Example 8, trifludimoxazin 0.25 g/ha a.s. alone

CC1(C)CON(Cc2ccc(Cl)cc2Cl)C1=O [(I), 2-(2,4-dichlorophenyl)methyl-4,4-dimethyl-3-isoxazolidone]
herbicidal activity against ALOMY found (ALOMY; [3]): 0%
herbicidal activity against GERDI found (GERDI; [3]): 20%
herbicidal activity against GERDI found (GERDI; [4]): 35%
herbicidal activity against GERDI found (GERDI; Example 5, compound (I) 15.625 g/ha a.s. alone): 20%
herbicidal activity against AVEFA found (AVEFA; [5]): 0%
herbicidal activity against MATIN found (MATIN; [5]): 50%
herbicidal activity against LAMPU found (LAMPU; [4]): 0%
herbicidal activity against LOLMU found (LOLMU; Example 4, compound (I) 125 g/ha a.s. alone): 65%
herbicidal activity against IPOHE found (IPOHE; [6]): 53%
herbicidal activity against STEME found (STEME [1]; [6]): 83%
herbicidal activity against POLCO found (POLCO; [7]): 60%
herbicidal activity against POLCO found (POLCO; [8]): 50%
herbicidal activity against POLCO found (POLCO; Example 10, compound (I) 62.5 g/ha a.s. alone): 73%
herbicidal activity against STEME found (STEME [2]; [7]): 83%
herbicidal activity against STEME found (STEME [2]; [8]): 85%
herbicidal activity against GALAP found (GALAP; Example 9, compound (I) 15.63 g/ha a.s. alone): 73%

C#CCN1C(=O)C(F)(F)Oc2cc(F)c(-n3c(=O)n(C)c(=S)n(C)c3=O)cc21 [trifludimoxazin, 1,5-dimethyl-6-thioxo-3-(2,2,7-trifluoro-3-oxo-4-(prop-2-ynyl)-3,4-dihydro-2H-benzo[b][1,4]oxazin-6-yl)-1,3,5-triazinane-2,4-dione]
herbicidal activity against ALOMY found (ALOMY; [9]): 60%
herbicidal activity against GERDI found (GERDI; [9]): 75%
herbicidal activity against GERDI found (GERDI; [10]): 0%
herbicidal activity against GERDI found (GERDI; Example 5, trifludimoxazin 4.5 g/ha a.s. alone): 0%
herbicidal activity against AVEFA found (AVEFA; [11]): 35%
herbicidal activity against MATIN found (MATIN; [11]): 90%
herbicidal activity against LAMPU found (LAMPU; [10]): 98%
herbicidal activity against LOLMU found (LOLMU; Example 4, trifludimoxazin 9 g/ha a.s. alone): 65%
herbicidal activity against IPOHE found (IPOHE; [12]): 97%
herbicidal activity against STEME found (STEME [1]; [12]): 90%
herbicidal activity against POLCO found (POLCO; [13]): 88%
herbicidal activity against POLCO found (POLCO; [14]): 88%
herbicidal activity against POLCO found (POLCO; Example 10, trifludimoxazin 0.25 g/ha a.s. alone): 88%
herbicidal activity against STEME found (STEME [2]; [13]): 80%
herbicidal activity against STEME found (STEME [2]; [14]): 80%
herbicidal activity against GALAP found (GALAP; Example 9, trifludimoxazin 2 g/ha a.s. alone): 93%
